Results taken from patent EP4772514A1, “MACROCYCLIC COMPOUNDS, PREPARATION METHOD THEREFOR, AND USE THEREOF” (Genfleet Therapeutics (Shanghai) Inc., priority 2023, dated 2025).
Like-named read-outs stand apart in the source and are kept apart here.

Assays:
Format in all cases: cell-based
[1] = tested on: AsPC-1 cells; experiment: 3D cell proliferation assay (CellTiter Glo-3D) in AsPC-1 cells; details: AsPC-1, human pancreatic cancer cell strain, KRAS G12D mutation, 3D culture, 2% FBS, 5 days, read-out: AsPC-1 AP IC50
How it was run: (§1)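 After a 5-day exposure at 37 °C to 3.16-fold serial dilutions (final DMSO 0.1%) in 2% FBS RPMI-1640, ATP luminescence (CellTiter-Glo 3D) was read. Cells were AsPC-1 (KRAS G12D) or NCI-H441 (KRAS G12V), 800 per well; inhibition used DMSO and medium-only controls, with four-parameter curve fitting giving IC50.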

[2] = tested on: p-ERK; experiment: Cell p-ERK assay (HTRF, Advance ERK phospho-T202/Y204 kit) in NCI-H441 cells; details: NCI-H441, human non-small cell lung cancer cell strain, KRAS G12V mutation, 3 h compound incubation
How it was run: (§2)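 Phospho-ERK (T202/Y204) measured by HTRF in lysates of AsPC-1 (KRAS G12D) or NCI-H441 (KRAS G12V) cells after 3 h compound exposure at 37 °C in RPMI-1640 + 10% FBS, 0.1% DMSO. Inhibition normalised to DMSO and blank wells; IC50 by four-parameter fit.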

[3] = tested on: p-ERK; experiment: Cell p-ERK assay (HTRF, Advance ERK phospho-T202/Y204 kit) in AsPC-1 cells; details: AsPC-1, human pancreatic cancer cell strain, KRAS G12D mutation, 3 h compound incubation
How it was run: as §2

[4] = tested on: NCI-H441 cells; experiment: 3D cell proliferation assay (CellTiter Glo-3D) in NCI-H441 cells; details: NCI-H441, human lung cancer cell strain, KRAS G12V mutation, 3D culture, 2% FBS, 5 days, read-out: H441 AP IC50
How it was run: as §1

In the case of CO[C@@H](C)c1ncc(C#CCN2CCS(=O)(=O)CC2)cc1-c1c2c(cn1C1CCCC1)/C=C/c1csc(n1)C[C@H](NC(=O)[C@H]1[C@H](C)[C@@H]1C)C(=O)N1CCC[C@H](N1)C(=O)OCC(C)(C)C2 (atropisomer, axis not shown; (Ra)) [Compound Z125, (1r,2R,3S)-N-((4^2Z,8^3S,2E,6S)-1^1-cyclopentyl-(Ra)-1^5-(5-(3-(1,1-dioxidothiomorpholino)prop-1-yn-1-yl)-2-((S)-1-methoxyethyl)pyridin-3-yl)-12,12-dimethyl-7,9-dioxo-8^1,8^2,8^3,8^4,8^5,8^6-hexahydro-1^1H-10-oxa-4(4,2)-thiazola-8(1,3)-pyridazina-1(3,4)-pyrrolycyclotridec-2-en-6-yl)-2,3-dimethylcyclopropane-1-carboxamide], the IC50 ([1]; ASPC1, 120 h) is reported as 0.35 nM, the IC50 ([2]; Homo sapiens, NCI-H441, 3 h) is reported as 0.53 nM and the IC50 ([3]; ASPC1) is reported as 0.51 nM. It also gave an IC50 ([4]; Homo sapiens, NCI-H441, 120 h) of 0.36 nM.
Work on CCn1cc2c(c1-c1cc(C#CCN3CCS(=O)(=O)CC3)cnc1[C@H](C)OC)CC(C)(C)COC(=O)[C@@H]1CCCN(N1)C(=O)[C@@H](NC(=O)[C@H]1[C@@H]3COC[C@@H]31)Cc1nc(cs1)/C=C/2 (atropisomer, axis not shown; (Ra)) [Compound Z130, (1R,5S,6r)-N-((4^2Z,8^3S,2E,6S)-(Ra)-1^5-(5-(3-(1,1-dioxidothiomorpholino)prop-1-yn-1-yl)-2-((S)-1-methoxyethyl)pyridin-3-yl)-1^1-ethyl-12,12-dimethyl-7,9-dioxo-8^1,8^2,8^3,8^4,8^5,8^6-hexahydro-1^1H -10-oxa-4(4,2)-thiazola-8(1,3)-pyridazina-1(3,4)-pyrrolacyclotridecaphan-2-en-6-yl)-3-oxabicyclo[3.1.0]hexane-6-carboxamide] yielded an IC50 ([1]; ASPC1, 120 h) of 0.36 nM, an IC50 ([2]; Homo sapiens, NCI-H441, 3 h) of 0.54 nM and an IC50 ([3]; ASPC1) of 0.94 nM. For the same compound, the IC50 ([4]; Homo sapiens, NCI-H441, 120 h) was 0.41 nM.
CCn1c(F)c2c(c1-c1cc(C#CCN3CCC(C#N)CC3)cnc1[C@H](C)OC)CC(C)(C)COC(=O)[C@@H]1CCCN(N1)C(=O)[C@@H](NC(=O)[C@H]1[C@H](C)[C@@H]1C)Cc1nc(cs1)/C=C/2 (atropisomer, axis not shown; (Ra)) [Compound Z139, (1r, 2R, 3S)-N-((4^2Z, 8^3S,2E,6S)-(Ra)-1^5-(5-(3-(4-cyanopiperidin-1-yl)prop-1-yn-1-yl)-2-((S)-1-methoxyethyl)pyridin-3-yl)-1^1-ethyl-1^2-fluoro-12,12-dimethyl-7,9-dioxo-8^1,8^1,8^1,8^4,8^5,8^6-hexahydro-1^1H-10-oxa-4(4,2)-thiazola-8(1,3)-pyridazina-1(3,4)-pyrrolacyclotridecaphan-2-en-6-yl)-2,3-dimethylcyclopropane-1-carboxamide] was tested, and the IC50 ([1]; ASPC1, 120 h) was 0.1 nM, the IC50 ([2]; Homo sapiens, NCI-H441, 3 h) was 0.42 nM and the IC50 ([3]; ASPC1) was 0.4 nM. For the same compound, the IC50 ([4]; Homo sapiens, NCI-H441, 120 h) was 0.12 nM.
For CCn1c(F)c2c(c1-c1cc(C#CCN3CCC(C#N)(CN)CC3)cnc1[C@H](C)OC)CC(C)(C)COC(=O)[C@@H]1CCCN(N1)C(=O)[C@@H](NC(=O)[C@H]1[C@H](C)[C@@H]1C)Cc1nc(cs1)/C=C/2 (atropisomer, axis not shown; (Ra)) [Compound Z145, (1r,2R,3S)-N-((4^2Z, 8^3S, 2E, 6S)-(Ra)-1^5-(5-(3-(4-(aminomethyl)-4-cyanopiperidin-1-yl)prop-1-yn-1-yl)-2-((S)-1-methoxyethy)pyridin-3-yl)-1^1-ethyl-1^2-fluoro-12,12-dimethyl-7,9-dioxo-8^1,8^2,8^3,8^4,8^5,8^6-hexahydro-1^1H-10-oxa-4(4,2)-thiazola-8(1,3)-pyridazina-1(3,4)-pyrrolacyclotridecaphan-2-en-6-yl)-2,3-dimethylcyclopropane-1-carboxamide], the IC50 ([1]; ASPC1, 120 h) was 0.15 nM, the IC50 ([2]; Homo sapiens, NCI-H441, 3 h) was 0.29 nM and the IC50 ([3]; ASPC1) was 0.15 nM. It also gave an IC50 ([4]; Homo sapiens, NCI-H441, 120 h) of 0.2 nM.
CCn1cc2c(c1-c1cc(C#CCN3CCOCC3)cnc1[C@H](C)OC)CC(C)(C)COC(=O)[C@@H]1CCCN(N1)C(=O)[C@@H](NC(=O)[C@H]1[C@H](C)[C@@H]1C)Cc1nc(cs1)/C=C/2 (atropisomer, axis not shown; (Ra)) [Compound Z172, (1r,2R,3S)-N-((4^2Z, 8^1S, 2E, 6S)-1^1-ethyl-(Ra)-1^5-(2-((S)-1-methoxyethyl)-5-(3-morpholinoprop-1-yn-1-yl)pyridin-3-yl)-12,12-dimethyl-7,9-dioxo-8^1,8^2,8^3,8^4,8^5,8^6-hexahydro-1^1H-10-oxa-4(4,2)-thiazola-8(1,3)-pyridazina-1(3,4)-pyrrolacyclotridecaphan-2-en-6-yl)-2,3-dimethylcyclopropane-1-carboxamide] showed an IC50 ([1]; ASPC1, 120 h) of 0.4 nM, an IC50 ([2]; Homo sapiens, NCI-H441, 3 h) of 0.75 nM and an IC50 ([3]; ASPC1) of 0.74 nM. The IC50 ([4]; Homo sapiens, NCI-H441, 120 h) was 0.41 nM.
CCn1c(F)c2c(c1-c1cc(C#CCN3CCOCC3)cnc1[C@H](C)OC)CC(C)(C)COC(=O)[C@@H]1CCCN(N1)C(=O)[C@@H](NC(=O)[C@H]1[C@H](C)[C@@H]1C)Cc1nc(cs1)/C=C/2 (atropisomer, axis not shown; (Ra)) [Compound Z229, (1r, 2R, 3S)-N-((4^2Z, 8^3S, 2E,6S)-1^1-ethyl-1^2-fluoro-(Ra)-1^5-(2-((S)-1-methoxyethyl)-5-(3-morpholinoprop-yn-1-yl)pyridin-3-yl)-12,12-dimethyl-7,9-dioxo-8^1,8^2,8^3,8^4,8^5,8^6-hexahydro-1^1H-10-oxa-4(4,2)-thiazola-8(1,3)-pyridazina-1(3,4)-pyrrolacyclotridecaphan-2-en-6-yl)-2,3-dimethylcyclopropane-1-carboxamide] gave an IC50 ([1]; ASPC1, 120 h) of 0.56 nM, an IC50 ([2]; Homo sapiens, NCI-H441, 3 h) of 0.6 nM and an IC50 ([3]; ASPC1) of 1.04 nM. It also gave an IC50 ([4]; Homo sapiens, NCI-H441, 120 h) of 0.56 nM.
CCn1cc2c(c1-c1cc(N3CCN(C)CC3)cnc1[C@H](C)OC)CC(C)(C)COC(=O)[C@@H]1CCCN(N1)C(=O)[C@@H](NC(=O)[C@H]1[C@H](C)[C@@H]1C)Cc1nc(cs1)/C=C/2 (single isomer, unassigned) [Compound Z8] was tested, and the IC50 ([1]; ASPC1, 120 h) was 2.37 nM, the IC50 ([2]; Homo sapiens, NCI-H441, 3 h) was 4.74 nM and the IC50 ([3]; ASPC1) was 4.98 nM. For the same compound, the IC50 ([4]; Homo sapiens, NCI-H441, 120 h) was 2.39 nM.
Work on CO[C@@H](C)c1ncc(C#CCN2CCS(=O)(=O)CC2)cc1-c1c2c(cn1C(C)C)/C=C/c1csc(n1)C[C@H](NC(=O)[C@H]1[C@H](C)[C@@H]1C)C(=O)N1CCC[C@H](N1)C(=O)OCC(C)(C)C2 (single isomer, unassigned) [Compound Z10] yielded an IC50 ([1]; ASPC1, 120 h) of 0.56 nM, an IC50 ([2]; Homo sapiens, NCI-H441, 3 h) of 0.83 nM and an IC50 ([3]; ASPC1) of 1.2 nM. For the same compound, the IC50 ([4]; Homo sapiens, NCI-H441, 120 h) was 0.42 nM.
With CO[C@@H](C)c1ncc(C#CCN2CCS(=O)(=O)CC2)cc1-c1c2c(nn1C(C)C)/C=C/c1csc(n1)C[C@H](NC(=O)[C@H]1[C@H](C)[C@@H]1C)C(=O)N1CCC[C@H](N1)C(=O)OCC(C)(C)C2 (single isomer, unassigned) [Compound Z15] the IC50 ([1]; ASPC1, 120 h) was 10.6 nM, the IC50 ([2]; Homo sapiens, NCI-H441, 3 h) was 6.74 nM and the IC50 ([3]; ASPC1) was 20.3 nM. The IC50 ([4]; Homo sapiens, NCI-H441, 120 h) was 4.31 nM.
For CCn1c(F)c2c(c1-c1cc(N3CCN(C)CC3)cnc1C(C)OC)CC(C)(C)COC(=O)C1CCCN(N1)C(=O)C(NC(=O)C1C(C)C1C)Cc1nc(cs1)C=C2 [Compound Z75, (1r,2S,3R)-N-((4^2Z,8^3R,2E,6R)-1^1-ethyl-1^2-fluoro-1^5-(2-((S)-1-methoxyethyl)-5-(4-methylpiperazin-1-yl)pyridin-3-yl)-12,12-dimethyl-7,9-dioxo-8^1,8^2,8^3,8^4,8^5,8^6-hexahydro-1^1H-10-oxa-4(4,2)-thiazola-8(1,3)-pyridazina-1(3,4)-pyrrolacyclotridecaphan-2-en-6-yl)-2,3-dimethylcyclopropane-1-carboxamide], the IC50 [1] was 2.17 nM, the IC50 [2] was 1.3 nM and the IC50 [3] was 1.46 nM. For the same compound, the IC50 [4] was 1.85 nM.
CCn1nc2c(c1-c1cc(C#CCN3CCC(C#N)(CN)CC3)cnc1[C@H](C)OC)CC(C)(C)COC(=O)[C@@H]1CCCN(N1)C(=O)[C@@H](NC(=O)[C@H]1[C@H](C)[C@@H]1C)Cc1nc(cs1)/C=C/2 [Compound Z119] showed an IC50 ([1]; ASPC1, 120 h) of 2.39 nM, an IC50 ([2]; Homo sapiens, NCI-H441, 3 h) of 1.81 nM and an IC50 ([3]; ASPC1) of 2.29 nM. It also gave an IC50 ([4]; Homo sapiens, NCI-H441, 120 h) of 1.45 nM.
In the case of “(1r,2R,3S)-N-((4^2Z,8^3R,2E,6R)-1^1-ethyl-(Sa)-1^5-(2-((S)-1-methoxyethyl)-5-(4-methylpiperazin-1-yl)pyridin-3-yl)-12,12-dimethyl-7,9-dioxo-8^1,8^2,8^3,8^4,8^5,8^6-hexahydro-1^1H-10-oxa-4(4,2)-thiazola-8(1,3)-pyridazina-1(3,4)-pyrrolacyclotridecaphan-2-en-6-yl)-2,3-dimethylcyclopropane-1-carboxamide [Compound Z8-1]”, the IC50 [1] is reported as 64.3 nM, the IC50 [2] is reported as 98.6 nM and the IC50 [3] is reported as 103 nM. For the same compound, the IC50 [4] was 62.7 nM.
